The results in this text go back to patent US8410302B2, “Methoxyimino compounds and fungicide composition comprising same” (Kyung Nong Corporation, priority 2007, dated 2013).

Assay [1] concerns Rhizoctonia solani AG-1. The assay can be described thus: Fungicidal activity against rice sheath blight (RSB) disease, control value. To be noted: for pest or weed control at 2 ppm / pest or weed control at 10 ppm / pest or weed control at 50 ppm / pest or weed control at 100 ppm: Rhizoctonia solani, AG1, in Oryza sativa, read-out: RSB control value (C.V.).
The subject of assay [2] is Phytophthora infestans. Briefly: whole plant or invertebrate. It is filed as in vivo. Particulars: for pest or weed control at 2 ppm / pest or weed control at 10 ppm / pest or weed control at 50 ppm / pest or weed control at 100 ppm: Phytophthora infestans, in Solanum lycopersicum, read-out: TLB control value (C.V.).
In assay [3] the test system is Erysiphae graminis. The assay can be described thus: Fungicidal activity against barley powdery mildew (BPM) disease, control value. It is filed as in vivo. Particulars: for pest or weed control at 2 ppm / pest or weed control at 10 ppm / pest or weed control at 50 ppm / pest or weed control at 100 ppm: 168 h, read-out: BPM control value (C.V.).
The test system of assay [4] is Botrytis cinerae. Briefly: Fungicidal activity against cucumber gray mold rot (CGM) disease, control value. The format is in vivo. Here is the method:
Botrytis cinerae, which was isolated from cucumber infected thereby, was inoculated on a potato agar medium (PEC) and cultured under a 12L/12D cycle at 25° C. for 15 days to form spore. The spores were scraped, filtered through a gauze and then suspended in Potato Dextrose broth at a concentration of 1×10^6 spore/ml. The spore suspension was sprayed on a cucumber plant having one leaf. The cucumber plant was held in a humidified room at 20° C. for 3 days. L.A. on a leaf was measured to calculate a C.V.

In assay [5] the test system is Puccinia recondita. Briefly: Fungicidal activity against wheat leaf rust (WLR) disease, control value. The format is in vivo. Particulars: for pest or weed control at 2 ppm / pest or weed control at 10 ppm / pest or weed control at 50 ppm / pest or weed control at 100 ppm: read-out: WLR control value (C.V.).
Assay [6] has as its system Pyricularia oryzae Carvara KA301. Briefly: whole plant or invertebrate. It is filed as in vivo. To be noted: for pest or weed control at 2 ppm / pest or weed control at 10 ppm / pest or weed control at 50 ppm / pest or weed control at 100 ppm: Pyricularia oryzae, read-out: RCB control value (C.V.); for RCB control value (C.V.): rice blast.
Setting [7] is: Hordeum vulgare, barley powdery mildew.
[8] abbreviates: Hordeum vulgare, 50 ppm, barley powdery mildew.
The mark [9] stands for this setting: Hordeum vulgare, 100 ppm, barley powdery mildew.
Setting [10] is: Botrytis, 100 ppm, cucumber gray mold rot, read-out: CGM control value (C.V.).
The mark [11] stands for this setting: Botrytis, 100 ppm, read-out: CGM control value (C.V.).

Like-named read-outs stand apart in the source and are kept apart here.

For the compound `CNC(=O)/C(=N/OC)c1ccccc1COc1cc(C=C(Cl)Cl)ccc1OC` [Example 48, (E)-2-(2-((5-(2,2-dichlorovinyl)-2-methoxyphenoxy)methyl)phenyl)-2-methoxyimino-N-methylacetamide], the pest or weed control at 2 ppm in assay [1] came to 95%; in assay [2] it was 70%; in assay [3] (setting [7]), 99%; in assay [5] (wheat leaf rust) it was 100%; in assay [6], 90%. Moreover, the pest or weed control at 10 ppm in assay [1] worked out at 98%; in assay [2] it was 99%; in assay [3] (setting [7]), 100%; in assay [5] (10 ppm, wheat leaf rust), 100%; in assay [6], 100%. The pest or weed control at 50 ppm in assay [1] came out at 100%; in assay [2] it was 100%; in assay [3] (setting [8]), 100%; in assay [5] (50 ppm, wheat leaf rust) it was 100%; in assay [6], 100%. Also, the pest or weed control at 100 ppm in assay [1] is 100%; in assay [2], 100%; in assay [3] (setting [9]), 100%; in assay [4] (setting [10]), 50%; in assay [5] (100 ppm, wheat leaf rust) it was 100%; in assay [6] it was 100%.
As to `CNC(=O)/C(=N/OC)c1ccccc1COc1ccc(C=C(Br)Br)c(Cl)c1` [Example 82, (E)-2-(2-((4-(2,2-dibromovinyl)-3-chlorophenoxy)methyl)phenyl)-2-methoxyimino-N-methylacetamide], the pest or weed control at 2 ppm in assay [1] was found to be 70%; in assay [3], 5%; in assay [5] (Puccinia recondita), 98%; in assay [6], 70%. Also, the pest or weed control at 10 ppm in assay [1] turned out to be 90%; in assay [2], 30%; in assay [3] it was 90%; in assay [5] (Puccinia recondita, 10 ppm), 100%; in assay [6], 90%. The pest or weed control at 50 ppm came out at 99% in assay [1]; 90% in assay [2]; 95% in assay [3] (50 ppm); 100% in assay [5] (Puccinia recondita, 50 ppm); 100% in assay [6]. Also, the pest or weed control at 100 ppm in assay [1] worked out at 100%; in assay [2] it was 90%; in assay [3] (100 ppm) it was 95%; in assay [4] (setting [11]) it was 0%; in assay [5] (Puccinia recondita, 100 ppm) it was 100%; in assay [6], 100%.
Regarding `CNC(=O)/C(=N/OC)c1ccccc1COc1ccc(C=C(F)F)cc1` [Example 10, (E)-2-(2-((4-(2,2-difluorovinyl)phenoxy)methyl)phenyl)-2-methoxyimino-N-methylacetamide], the pest or weed control at 100 ppm in assay [1] amounted to 45%; in assay [2] it was 100%; in assay [3] (setting [9]), 98%; in assay [4] (setting [10]) it was 50%; in assay [5] (100 ppm, wheat leaf rust), 100%; in assay [6], 100%. The pest or weed control at 2 ppm in assay [2], in assay [5] (wheat leaf rust) and in assay [6] was 100% in each case. Besides, the pest or weed control at 10 ppm in assay [2] was 100%; in assay [5] (10 ppm, wheat leaf rust), 100%; in assay [6], 100%. For the same compound, the pest or weed control at 50 ppm is 100% in assay [2]; 60% in assay [3] (setting [8]); 100% in assay [5] (50 ppm, wheat leaf rust); 100% in assay [6].
For `CO/N=C(/C(=O)OC)c1ccccc1CON=C(C)c1cccc(C=C(F)Cl)c1` [Example 31, methyl-(E)-2-[[[[[2-[3-(2-chloro-2-fluorovinyl)phenyl](1-methyl)methylidene]amino]oxy]methyl]phenyl]-2-methoxyiminoacetate], the “RSB control value (C.V.)” value in assay [1] (100 ppm, rice sheath blight) was found to be 30%. In addition, in assay [2] (100 ppm, tomato late blight), the “TLB control value (C.V.)” value was determined as 60%. Besides, the “BPM control value (C.V.)” value was determined as 60% in assay [3] (50 ppm, barley powdery mildew) and 90% in assay [3] (100 ppm, barley powdery mildew). The “CGM control value (C.V.)” value in assay [4] (100 ppm, cucumber gray mold rot) is reported as 43%. Besides, the “WLR control value (C.V.)” value in assay [5] (10 ppm, wheat leaf rust) stood at 40%; in assay [5] (50 ppm, wheat leaf rust) it was 90%; in assay [5] (100 ppm, wheat leaf rust), 100%. In addition, the “RCB control value (C.V.)” value in assay [6] (50 ppm) was found to be 70%; in assay [6] (100 ppm), 95%.
Regarding `CO/N=C(/C(=O)OC)c1ccccc1COc1ccc(C=C(Cl)Cl)cc1C` [Example 41, methyl-(E)-2-(2-((4-(2,2-dichlorovinyl)-2-methylphenoxy)methyl)phenyl)-2-methoxyiminoacetate], the pest or weed control at 2 ppm in assay [1], in assay [2], in assay [3] (setting [7]), in assay [5] (wheat leaf rust) and in assay [6] was 100% throughout. Further, the pest or weed control at 10 ppm in assay [1] was 100%; in assay [2], 100%; in assay [3] (setting [7]), 100%; in assay [5] (10 ppm, wheat leaf rust) it was 100%; in assay [6], 100%. The pest or weed control at 50 ppm in assay [1] was 100%; in assay [2], 100%; in assay [3] (setting [8]) it was 100%; in assay [4] (Botrytis, 50 ppm, cucumber gray mold rot, read-out: CGM control value (C.V.)), 75%; in assay [5] (50 ppm, wheat leaf rust) it was 100%; in assay [6], 100%. Also, the pest or weed control at 100 ppm in assay [1] was determined as 100%; in assay [2], 100%; in assay [3] (setting [9]) it was 100%; in assay [4] (setting [10]), 90%; in assay [5] (100 ppm, wheat leaf rust), 100%; in assay [6] it was 100%.
As for `CO/N=C(/C(=O)OC)c1ccccc1COc1ccc(C)cc1C=C(Br)Br` [Example 69, methyl-(E)-2-(2-((2-(2,2-dibromovinyl)-4-methylphenoxy)methyl)phenyl)-2-methoxyiminoacetate], the pest or weed control at 2 ppm in assay [1], in assay [2], in assay [3], in assay [5] (Puccinia recondita) and in assay [6] was 100% throughout. The pest or weed control at 10 ppm is 100% in assay [1]; 100% in assay [2]; 100% in assay [3]; 100% in assay [5] (Puccinia recondita, 10 ppm); 100% in assay [6]. Also, the pest or weed control at 50 ppm in assay [1] is 100%; in assay [2] it was 100%; in assay [3] (50 ppm), 100%; in assay [5] (Puccinia recondita, 50 ppm), 100%; in assay [6], 100%. The pest or weed control at 100 ppm in assay [1] came to 100%; in assay [2] it was 100%; in assay [3] (100 ppm), 100%; in assay [4] (setting [11]) it was 60%; in assay [5] (Puccinia recondita, 100 ppm), 100%; in assay [6], 100%.
On to `CO/N=C(/C(=O)OC)c1ccccc1COc1cccc(C=C(F)Cl)c1` [Example 11, methyl-(2E)-2-(2-((3-(2-chloro-2-fluorovinyl)phenoxy)methyl)phenyl)-2-methoxyiminoacetate], for which the pest or weed control at 100 ppm in assay [1] was 30%; in assay [2], 60%; in assay [3] (setting [9]), 90%; in assay [4] (setting [10]), 43%; in assay [5] (100 ppm, wheat leaf rust) it was 100%; in assay [6], 95%. The pest or weed control at 50 ppm came to 60% in assay [3] (setting [8]); 90% in assay [5] (50 ppm, wheat leaf rust); 70% in assay [6]. For the same compound, the pest or weed control at 10 ppm in assay [5] (10 ppm, wheat leaf rust) came to 40%.
